pIC50: −log10 of the molar value.

T1 sequence (P28482 whole entry): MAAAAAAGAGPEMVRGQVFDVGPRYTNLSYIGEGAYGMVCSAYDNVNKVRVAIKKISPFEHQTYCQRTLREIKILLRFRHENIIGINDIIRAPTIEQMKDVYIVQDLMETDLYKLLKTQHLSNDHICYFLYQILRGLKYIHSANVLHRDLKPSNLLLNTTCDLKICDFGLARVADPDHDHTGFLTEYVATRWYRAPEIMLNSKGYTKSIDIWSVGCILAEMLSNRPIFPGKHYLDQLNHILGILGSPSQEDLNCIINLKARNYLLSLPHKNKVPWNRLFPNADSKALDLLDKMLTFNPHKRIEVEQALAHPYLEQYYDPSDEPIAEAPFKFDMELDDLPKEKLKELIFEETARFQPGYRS

The first experiment has as its target T1, ERK2 (MAPK1) (Homo sapiens, UniProt P28482).
T1 construct: purchased Life technologies
Briefly: ERK2 (MAPK1) enzymatic assay (Z′-Lyte). It counts as biochemical.
Conditions: not given
As to the method:
To assess the capacity of compounds to inhibit ERK2 enzymatic activity, Z′-Lyte biochemical assay from Life technologies was used according to manufacturer's instructions. Briefly, black 384-well plates containing 100 nl of 100× compound solution in 100% DMSO, 2.4 μl kinase buffer, 5 μl 2×MAPK1 (ERK2)/Ser/Thr 03 mixture and 2.5 μl 4×ATP solution were used. Plates were shaken for 30 seconds and incubated for 60 minutes at room temperature. Then, 5 μl of a 1:1024 dilution of Development Reagent A was added. Plates were shaken for 30 seconds and incubated for 60 minutes at room temperature. A plate reader was used to read fluorescence. […] Kinase buffer consisted of 50 mM HEPES pH 7.5, 0.01% BRIJ-35, 10 mM MgCl2, 1 mM EGTA.
Regarding `CCN(C)C[C@H](c1cccc(Cl)c1)n1ccc(-c2c[nH]c3ncc(N4CCOCC4)cc23)cc1=O` [Compound no15 (S), (S)-1-(1-(3-chlorophenyl)-2-(ethyl(methyl)amino)ethyl)-4-(5-morpholino-1H-pyrrolo[2,3-b]pyridin-3-yl)pyridin-2(1H)-one], the pIC50 is 8.46. The same measure, in the same setting: the value for `COCc1cc(Cl)cc([C@@H](CN(C)C)n2ccc(-c3c[nH]c4ncc(N5CCOCC5)cc34)cc2=O)c1` [Compound no23 (S), (S)-1-(1-(3-chloro-5-(methoxymethyl)phenyl)-2-(dimethylamino)ethyl)-4-(5-morpholino-1H-pyrrolo[2,3-b]pyridin-3-yl)pyridin-2(1H)-one] was 8.35; that for `CN(C)CC(c1cc(F)cc(I)c1)n1ccc(-c2c[nH]c3ncc(N4CCOCC4)cc23)cc1=O` (racemic) [Compound no10 (racemate), 1-(2-(dimethylamino)-1-(3-fluoro-5-iodophenyl)ethyl)-4-(5-morpholino-1H-pyrrolo[2,3-b]pyridin-3-yl)pyridin-2(1H)-one] was 8.29; that for `CN(C)CC(c1cc(F)cc(Cl)c1)n1ccc(-c2c[nH]c3ncc(N4CCOCC4)cc23)cc1=O` (racemic) [Compound no9 (racemate), 1-(1-(3-Chloro-5-fluorophenyl)-2-(dimethylamino)ethyl)-4-(5-morpholino-1H-pyrrolo[2,3-b]pyridin-3-yl)pyridin-2(1H)-one] was 8.11.

The target in a further experiment is 58 kinases. Description: Kinase panel (Z′-Lyte, Adapta/Lanthascreen), 58 kinases. It counts as biochemical. The settings on record: number of the 58 kinases inhibited more than 50% at 500 nM. As to the method: To assess the kinase selectivity of compounds, Z′-Lyte biochemical assay, and Adapta/Lanthascreen binding assays from Life technologies were used according to manufacturer's instructions. Pourcentages of inhibition at 500 nM of test compounds were performed towards 58 kinases: ABL1, ACVR1B (ALK4), AKT2 (PKB beta), AMPK (A1/132/G3), AURKA (Aurora A), AXL, BRAF, BTK, CAMK2B (CaMKII beta), CDK2/cyclin A, CHEK1 (CHK1), CLK1, CSNK1A1 (CK1 alpha 1), CSNK2A1 (CK2 alpha 1), DAPK3 (ZIPK), DYRK1A, EGFR (ErbB1), EPHB3, ERBB2 (HER2), FGFR2, FLT3, FRAP1 (mTOR), GSK3B (GSK3 beta), IGF1R, IKBKB (IKK beta), INSR, IRAK4, JAK2, KDR (VEGFR2), KIT, LCK, MAP2K1 (MEK1), MAPK10 (JNK3), MAPK11 (p38 beta), MAPKAPK2, MARK2, MET (cMet), NEK2, NTRK1 (TRKA), PAK2 (PAK65), PDGFRB (PDGFR beta), PDK1 Direct, PHKG2, PIK3CA/PIK3R1 (p110 alpha/p85 alpha), PIM1, PLK1, PRKACA (PKA), PRKCA (PKC alpha), PTK2 (FAK), RET, ROCK1, RPS6KA1 (RSK1), RPS6KB1 (p70S6K), SRC, STK3 (MST2), SYK, TEK (Tie2), TYRO3 (RSE).
As for `CNC[C@H](c1ccc(Cl)c(Cl)c1)n1ccc(-c2c[nH]c3ncc(N4CCOCC4)cc23)cc1=O` [Comparative compound B (S), (S)-1-(1-(3,4-dichlorophenyl)-2-(methylamino)ethyl)-4-(5-morpholino-1H-pyrrolo[2,3-b]pyridin-3-yl)pyridin-2(1H)-one, reference compound], the “Kinase panel @500 nM hits > 50%” value is 20/58.

For `NC[C@H](c1cccc(Cl)c1)n1ccc(-c2c[nH]c3ncc(N4CCOCC4)cc23)cc1=O` [Comparative compound A (S), (S)-1-(2-amino-1-(3-chlorophenyl)ethyl)-4-(5-morpholino-1H-pyrrolo[2,3-b]pyridin-3-yl)pyridin-2(1H)-one, reference compound], the “Kinase panel @500 nM hits > 50%” value is recorded as 26/58.

The same experiment, now with this note: number of the 58 kinases inhibited more than 80% at 500 nM.
For the compound `CNC[C@H](c1ccc(Cl)c(Cl)c1)n1ccc(-c2c[nH]c3ncc(N4CCOCC4)cc23)cc1=O` [Comparative compound B (S), (S)-1-(1-(3,4-dichlorophenyl)-2-(methylamino)ethyl)-4-(5-morpholino-1H-pyrrolo[2,3-b]pyridin-3-yl)pyridin-2(1H)-one, reference compound], the “Kinase panel @500 nM hits > 80%” value is 10/58.

Take `NC[C@H](c1cccc(Cl)c1)n1ccc(-c2c[nH]c3ncc(N4CCOCC4)cc23)cc1=O` [Comparative compound A (S), (S)-1-(2-amino-1-(3-chlorophenyl)ethyl)-4-(5-morpholino-1H-pyrrolo[2,3-b]pyridin-3-yl)pyridin-2(1H)-one, reference compound]: the “Kinase panel @500 nM hits > 80%” value is listed as 15/58.

A further experiment concerns A375 cells (malignant melanoma). Briefly: Cell line proliferation assay (MTT, A375). It counts as cell-based. The settings on record: Homo sapiens, A-375, 72 hours. As to the method:
A cell line assay was used to determine the capacity of compounds to inhibit cell proliferation. A375 cells (malignant melanoma) were grown to near 80% confluence and seeded at 3000 cells per 100 μl per well in DMEM with 10% FBS in 96-well flat bottom plates. Cells were incubated for 24 hours at 37° C. under 5% CO2. 100 μl compound solutions were added to cells and incubated for 72 hours at 37° C. Total volume of media was 200 μl per well. Compounds were screened in 0.15% DMSO (final) using 10 titration points in duplicate. Negative control wells consisted of vehicle only (0.15% DMSO in 10% FBS DMEM). After 72 hours of compound treatment, SDS 1% (final) was added to positive control wells for 15 minutes at 37° C. Then, medium was discarded and replaced by 100 μl per well of a MTT solution (3-[4.5-dimethylthiazol-2-yl]-2.5-diphenyltetrazolium bromide) (Sigma, Cat #M5655) at 0.5 mg/ml in 10% FBS DMEM. Cells were incubated for 4 hours at 37° C. MTT reaction was stopped and homogenized by the addition of 100 μl per well of SDS 10% 0.01M HCl. After 16 hours at 37° C., absorbance was measured at 570 nm in a Bio-Tek plate reader (PowerWave HT). […] Analysis was performed using GraphPad Prism software.
In the case of `CN(C)C[C@H](c1cc(F)cc(F)c1)n1ccc(-c2c[nH]c3ncc(N4CCOCC4)cc23)cc1=O` [Compound no18 (S), (S)-1-(1-(3,5-difluorophenyl)-2-(dimethylamino)ethyl)-4-(5-morpholino-1H-pyrrolo[2,3-b]pyridin-3-yl)pyridin-2(1H)-one], the negative-log IC50 (pIC50) was 6.43. The same measure, in the same setting: the value for `COCCN(C)C[C@H](c1cccc(Cl)c1)n1ccc(-c2c[nH]c3ncc(N4CCOCC4)cc23)cc1=O` [Compound no13 (S), (S)-1-(1-(3-chlorophenyl)-2-((2-methoxyethyl)(methyl)amino)ethyl)-4-(5-morpholino-1H-pyrrolo[2,3-b]pyridin-3-yl)pyridin-2(1H)-one] was 6.58; that for `CN(C)C[C@H](c1cc(F)cc(Cl)c1)n1ccc(-c2c[nH]c3ncc(N4CCOCC4)cc23)cc1=O` [Compound no9 (S), (S)-1-(1-(3-chloro-5-fluorophenyl)-2-(dimethylamino)ethyl)-4-(5-morpholino-1H-pyrrolo[2,3-b]pyridin-3-yl)pyridin-2(1H)-one] was 6.73; that for `Cc1cc(-c2c[nH]c3ncc(N4CCOCC4)cc23)cc(=O)n1[C@H](CN(C)C)c1cccc(Cl)c1` [Compound no20 (S), (S)-1-(1-(3-chlorophenyl)-2-(dimethylamino)ethyl)-6-methyl-4-(5-morpholino-1H-pyrrolo[2,3-b]pyridin-3-yl)pyridin-2(1H)-one] was 6.08.

In turn, `CN(CC#N)C[C@H](c1cccc(Cl)c1)n1ccc(-c2c[nH]c3ncc(N4CCOCC4)cc23)cc1=O` [Compound no12 (S), (S)-2-((2-(3-chlorophenyl)-2-(4-(5-morpholino-1H-pyrrolo[2,3-b]pyridin-3-yl)-2-oxopyridin-1(2H)-yl)ethyl)(methyl)amino)acetonitrile] had a pIC50 of 8.15. With `CN(C[C@H](c1cccc(Cl)c1)n1ccc(-c2c[nH]c3ncc(N4CCOCC4)cc23)cc1=O)C1CC1` [Compound no14 (S), (S)-1-(1-(3-chlorophenyl)-2-(cyclopropyl(methyl)amino)ethyl)-4-(5-morpholino-1H-pyrrolo[2,3-b]pyridin-3-yl)pyridin-2(1H)-one], the negative logarithm of the IC50 (pIC50) was 6.38. Against the preceding compound, the pIC50 is 1.77 log units lower.

Turning to `CCN(C)C[C@H](c1cccc(Cl)c1)n1ccc(-c2c[nH]c3ncc(N4CCOCC4)cc23)cc1=O` [Compound no15 (S), (S)-1-(1-(3-chlorophenyl)-2-(ethyl(methyl)amino)ethyl)-4-(5-morpholino-1H-pyrrolo[2,3-b]pyridin-3-yl)pyridin-2(1H)-one], the pIC50 was 7.29. Against the preceding compound, the pIC50 is 0.91 log units higher. For `COCc1cc(Cl)cc([C@@H](CN(C)C)n2ccc(-c3c[nH]c4ncc(N5CCOCC5)cc34)cc2=O)c1` [Compound no23 (S), (S)-1-(1-(3-chloro-5-(methoxymethyl)phenyl)-2-(dimethylamino)ethyl)-4-(5-morpholino-1H-pyrrolo[2,3-b]pyridin-3-yl)pyridin-2(1H)-one], the pIC50 is 8.10.

`CN(CC1CC1)C[C@H](c1cccc(Cl)c1)n1ccc(-c2c[nH]c3ncc(N4CCOCC4)cc23)cc1=O` [Compound no16 (S), (S)-1-(1-(3-chlorophenyl)-2-((cyclopropylmethyl)(methyl)amino)ethyl)-4-(5-morpholino-1H-pyrrolo[2,3-b]pyridin-3-yl)pyridin-2(1H)-one] showed a pIC50 of 6.79. The same measure, in the same setting: the value for `CN(C)C[C@H](c1cccc(Cl)c1)n1cc(F)c(-c2c[nH]c3ncc(N4CCOCC4)cc23)cc1=O` [Compound no19 (S), (S)-1-(1-(3-chlorophenyl)-2-(dimethylamino)ethyl)-5-fluoro-4-(5-morpholino-1H-pyrrolo[2,3-b]pyridin-3-yl)pyridin-2(1H)-one] was 6.52. Same read-out and setting: the value for `CN(C)C[C@H](c1cc(F)cc(I)c1)n1ccc(-c2c[nH]c3ncc(N4CCOCC4)cc23)cc1=O` [Compound no10 (S), (S)-1-(2-(dimethylamino)-1-(3-fluoro-5-iodophenyl)ethyl)-4-(5-morpholino-1H-pyrrolo[2,3-b]pyridin-3-yl)pyridin-2(1H)-one] was 6.94. Still for that read-out and setting: the value for `CN(CC(F)F)C[C@H](c1cccc(Cl)c1)n1ccc(-c2c[nH]c3ncc(N4CCOCC4)cc23)cc1=O` [Compound no11 (S), (S)-1-(1-(3-chlorophenyl)-2-((2,2-difluoroethyl)(methyl)amino)ethyl)-4-(5-morpholino-1H-pyrrolo[2,3-b]pyridin-3-yl)pyridin-2(1H)-one] was 6.64; that for `O=c1cc(-c2c[nH]c3ncc(N4CCOCC4)cc23)ccn1[C@H](CN1CC1)c1cccc(Cl)c1` [Compound no24 (S), (S)-1-(2-(aziridin-1-yl)-1-(3-chlorophenyl)ethyl)-4-(5-morpholino-1H-pyrrolo[2,3-b]pyridin-3-yl)pyridin-2(1H)-one] was 7.02.

Compound `CN(C)C[C@H](c1cccc(Cl)c1)n1ccc(-c2c[nH]c3ncc(N4CCOC(C(F)(F)F)C4)cc23)cc1=O` (stereo partly drawn) [Compound no21 (S), 1-((S)-1-(3-chlorophenyl)-2-(dimethylamino)ethyl)-4-(5-(2-(trifluoromethyl)morpholino)-1H-pyrrolo[2,3-b]pyridin-3-yl)pyridin-2(1H)-one] gave a pIC50 of 6.70. Same read-out and setting: next, `CN(C)C[C@H](c1cccc(C#N)c1)n1ccc(-c2c[nH]c3ncc(N4CCOCC4)cc23)cc1=O` [Compound no25 (S), (S)-3-(2-(dimethylamino)-1-(4-(5-morpholino-1H-pyrrolo[2,3-b]pyridin-3-yl)-2-oxopyridin-1(2H)-yl)ethyl)benzonitrile]: 6.81; `CN(C)C[C@H](c1cccc(C(F)(F)F)c1)n1ccc(-c2c[nH]c3ncc(N4CCOCC4)cc23)cc1=O` [Compound no26 (S), (S)-1-(2-(dimethylamino)-1-(3-(trifluoromethyl)phenyl)ethyl)-4-(5-morpholino-1H-pyrrolo[2,3-b]pyridin-3-yl)pyridin-2(1H)-one]: 7.82.

For the origin of these results see patent publication US11827637B2, “Azaindole derivatives and their use as ERK kinase inhibitors” (AGV Discovery, priority 2022, dated 2023).
